Test results reported in publication PMC5704035 (Biochemistry and Biophysics Reports, 2017).

Biological target: AzoA (Enterococcus faecalis, UniProt Q831B2)
Assay: spectroscopy of purified protein, FMN to protein molar ratio
Format: binding
Settings: co-purified flavin; two sites per homodimer

AzoA, sequence (Q831B2 whole entry): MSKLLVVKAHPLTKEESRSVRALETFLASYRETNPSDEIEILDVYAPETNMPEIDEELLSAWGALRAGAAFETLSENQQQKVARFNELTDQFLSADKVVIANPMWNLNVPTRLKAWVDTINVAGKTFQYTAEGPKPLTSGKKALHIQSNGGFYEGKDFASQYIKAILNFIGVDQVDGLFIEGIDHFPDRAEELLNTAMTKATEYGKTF

SMILES: Cc1cc2nc3c(=O)[nH]c(=O)nc-3n(C[C@H](O)[C@H](O)[C@H](O)COP(=O)(O)O)c2cc1C [FMN]
- spectroscopy of purified protein, FMN to protein molar ratio: suggesting that two FMN molecules bind to an AzoA (wild-type and mutants)
